From US10905757B2, “Cross-reactive T cell epitopes of HIV, SIV, and FIV for vaccines in humans and cats” (priority 2012, dated 2021)
Entries after “also recorded” stand apart in the source; their conditions may differ.

What was measured:
[1] = test system: PBMC from SIV-infected rhesus macaques; type: cell-based, rhesus macaque; details: macaques R395, R397, R416, R422
[2] = test system: PBMC from FIV-vaccinated cats; assay: IL2 ELISpot, PBMC from FIV-vaccinated cats (prototype vaccine, or prime plus MAP boosts); type: cell-based, cat; details: for IL2 (SFU): prime 1x IWV, post-second MAP boost, peptide or MAP as culture stimulant, >50 positive
Description: (§1) Peptide Fp4-3 (left), peptide Fp14-1 (middle) and MAP1 [right] were culture stimulants. IL2 and IFNγ ELISpot results of >50 spot forming units (SFU/10^6 PBMC) and CFSE-proliferation of >2 are considered positive (bolded). The prime-boost vaccination induced IL2 responses in 3 of 4 cats and IFNγ response in one. Larger responses were induced by MAP1 than individual peptides in culture.

[3] = test system: CD4+ T cells from FIV-vaccinated cats; assay: CFSE-proliferation, CD4+ T cells from FIV-vaccinated cats; type: cell-based, cat; details: for Proliferation (CFSE^low) CD4^+ T cells: prime 1x IWV, post-second MAP boost, peptide or MAP as culture stimulant, >2 positive
Description: (§2) FIGS. 32A and 32B. T-cell proliferation responses to FIV p24 peptide pools by vaccinated cats. […] (FIG. 32A) and CD3^+CD8^+ (FIG. 32B) T-cell proliferation responses are shown for prototype FIV-vaccinated cats. The FIV vaccinated cats were semi-inbred cats with blue, dark red, and pink/green bars from different MHC-lineage colonies. The semi-inbred cats with light pink and green bars are from the same […] lineage. Pools Fp9 and Fp14 are recognized by both HIV^+ subjects and vaccinated cats (i.e., evolutionarily conserved [EC] epitopes) but pools Fp3 and Fp4 are not recognized by HIV^+ subjects (i.e., non-EC epitopes). The IFNγ responses of these cats were either low or below the cut-off threshold of 50 SFU/1×10^6 PBMC. The peptides that stimulated the most proliferation responses: non-EC peptide Fp4-3 in pool Fp4 and EC peptide Fp14-1 in pool Fp14 were used in in vivo study below (FIG. 34).
(§3) FIGS. 33A-33C. IFNγ and T-cell proliferation responses to Fp9 and Fp14 by the FIV-vaccinated cats and FIV-infected cats. The T cells or PBMC from 32 FIV-vaccinated cats were stimulated with either Fp9 or Fp14 and evaluated for proliferation (FIG. 33A) or IFNγ (FIG. 33B) responses. In addition, the PBMC from 32 FIV-infected cats at 22-52 weeks of infection and 20 HIV-1 p24-immunized cats were tested for IFNγ responses to the same peptide pools (FIG. 33B). Three types of laboratory cats were used in these studies: semi-inbred line 1 (Semi-Inbred 1), semi-inbred line 2 (Semi-Inbred 2), and outbred cats (Outbred) from laboratory cat vendors. Semi-inbred cats have been inbred for 3-5 generations with defined feline leukocyte antigen (FLA) alleles and are divided into two FLA haplotype lines. FIV vaccine consisted of prototype dual-subtype FIV vaccine (Coleman et al. 2014). The insert in each panel defines the numbers of each type of cats as well as vaccination (Vac.) or infection (Infect.) status. The number of cat responders used varies between the analyses performed for the individual Fp14 peptides (FIG. 33C, left for IFNγ and right for proliferation).
as §1

[4] = test system: CD3+CD8+ T cells from FIV-vaccinated cats; assay: CFSE-proliferation, CD8+ T cells from FIV-vaccinated cats; type: cell-based, cat; details: prime 1x IWV, post-second MAP boost, peptide or MAP as culture stimulant, >2 positive
Description: as §2, §3, §1

[5] = test system: FIV infection of naïve cat PBMC; assay: In vitro FIV enhancing/inhibitory (E/I) assay in PBMC from naïve SPF cats (RT titer); type: cell-based; details: PBMC from naïve cats
Procedure: FIG. 35. FIV-enhancing versus inhibitory epitopes on peptides and MAPs used in pilot MAP Study. […] Abbreviation: MAP1 plus MAP2 mix (MAP1+2).
FIG. 36A and 36B. FIV/HIV-1 enhancing versus inhibitory epitopes. […] Four epitope peptides were tested in an in vivo efficacy study with prototype vaccine prime and MAP boosts against pathogenic FIV challenge (see MAP section).
To test the possibility that Fp4-3 peptide may be enhancing FIV infection, we performed an in vitro FIV enhancing/inhibitory analysis with all MAP peptides and immunogens. […]. Since MAP2 consisted of peptides FRT3-3 and FRT3-4 with a natural overlap (FIG. 34), such overlap may have blocked the enhancing activity of peptide FRT3-3 while allowing the inhibitory activity of peptide FRT3-4. […] Moreover, none of the MAP vaccinated cats had early detection or enhancement in viral load compared to the control cats. Perhaps, the strong immunity generated by the MAP2 has blocked the enhancing activity of the MAP1 when boosted together (Group 1, Table 3). To test this possibility, in vitro study is currently undergoing to evaluate whether MAP2 can block FIV enhancing activity of MAP1. Furthermore, more cats will be vaccinated with MAP 1b and MAP2 to determine the levels of cytotoxins generated to peptides Fp14-1, FRT3-3 and FRT3-4. Since these peptides have induced CTL-associated cytotoxin expression in T cells from HIV^+ subjects (FIGS. 31A-31B; FIG. 5 in (Sanou et al. 2013)), these EC peptides may also mediate their in vivo effects by inducing anti-FIV specific CTL activity.
However, only peptide Fp4-3 correlated with the in vitro enhancement induced by MAP1. Since the in vitro E/I assay uses PBMC from naïve specific pathogen free (SPF) cats, it is unlikely that the in vitro stimulation of anti-FIV CTLs occurred in the culture and eliminated the infected cells. More likely, these enhancing or inhibitory peptides induced cytokines (enhancement: IFNγ, TNFα, GM-CSF; inhibition: IFNα, IL10), chemokines (inhibition: MIP1α, MIP1β, SDF-1, RANTES), or cellular restriction factors (inhibition: Trim5α, APOBEC3g) that either enhanced or inhibited FIV/HIV-1 infection. […] IFNγ is produced during inflammatory responses to HIV-1 infection (Ipp and Zemlin 2013). Thus, high levels of antiviral cellular immune responses are needed while minimizing both non-specific and viral-specific activation of CD4^+ T cells which can enhance viral replication (Lane 2010). Removal of the enhancing epitopes on FIV and HIV-1 immunogens will be critical to produce an effective HIV-1 vaccine. To accomplish this goal, we will design a vaccine based on antiviral epitopes directed at inducing viral-specific CD4^+ CTLs, CD8^+ CTLs and polyfunctional T cells, and identifying viral enhancing epitopes to remove from vaccine candidates.

[6] = test system: PBMC from FIV-vaccinated cats; assay: IFNγ ELISpot, PBMC from FIV-vaccinated cats (prototype vaccine, or prime plus MAP boosts); type: cell-based, cat; details: for IFNγ (SFU): prime 1x IWV, post-second MAP boost, peptide or MAP as culture stimulant, >50 positive
Description: as §1

[7] = cat DVB, boost-1 MAP1b, boost-2 MAP1b
[8] = cat DVD, boost-1 MAP1, boost-2 MAP1
[9] = cat QVQ, boost-1 MAP1b, boost-2 MAP1b
[10] = cat QVW, boost-1 MAP1, boost-2 MAP1

Sequence: KWRKLVDFRELNKR [H3-4]
- reactivity of PBMC from individual infected macaques [1]: reacted

Sequence: PTDMATLIMAAPGCA [Fp4-3]
- IL2 responses in PBMC from FIV-vaccinated cats (in words) [2]: induced predominantly
- IL2 (SFU) [2, 7]: 0 SFU/10^6 PBMC
- IL2 (SFU) [2, 8]: 95 SFU/10^6 PBMC
- IL2 (SFU) [2, 9]: 0 SFU/10^6 PBMC
- IL2 (SFU) [2, 10]: 0/0 SFU/10^6 PBMC
- CD4+ T-cell proliferation in FIV-vaccinated cats (in words) [3]: induced predominantly
- Proliferation (CFSE^low) CD4^+ T cells [3, 7]: 0
- Proliferation (CFSE^low) CD4^+ T cells [3, 8]: 3
- Proliferation (CFSE^low) CD4^+ T cells [3, 9]: 1/1
- Proliferation (CFSE^low) CD4^+ T cells [3, 10]: 0
- Proliferation (CFSE^low) CD8^+ T cells [4, 7]: 0
- Proliferation (CFSE^low) CD8^+ T cells [4, 8]: 6
- Proliferation (CFSE^low) CD8^+ T cells [4, 9]: 0
- Proliferation (CFSE^low) CD8^+ T cells [4, 10]: 0
- effect on in vitro FIV infection [5]: significant enhancement; also recorded: significantly enhanced
- IFNγ responses in PBMC from FIV-vaccinated cats (in words) [6]: induced predominantly; also recorded: high levels
- IFNγ (SFU) [6, 7]: 0/0 SFU/10^6 PBMC
- IFNγ (SFU) [6, 8]: 132 SFU/10^6 PBMC
- IFNγ (SFU) [6, 9]: 0/0 SFU/10^6 PBMC
- IFNγ (SFU) [6, 10]: 21 SFU/10^6 PBMC

Sequence: PTDLATLILAAPGSARVKRDQEQNTAEVKLYLK [MAP1, palmitated multiple antigenic peptide: Fp4-3/furin-sensitive-linker/Fp14-1]
- IL2 (SFU) [2, 7]: [76] SFU/10^6 PBMC
- IL2 (SFU) [2, 8]: [296] SFU/10^6 PBMC
- IL2 (SFU) [2, 9]: [165] SFU/10^6 PBMC
- IL2 (SFU) [2, 10]: [9] SFU/10^6 PBMC
- Proliferation (CFSE^low) CD4^+ T cells [3, 7]: [1]
- Proliferation (CFSE^low) CD4^+ T cells [3, 8]: [2]
- Proliferation (CFSE^low) CD4^+ T cells [3, 9]: [7]
- Proliferation (CFSE^low) CD4^+ T cells [3, 10]: [7]
- Proliferation (CFSE^low) CD8^+ T cells [4, 7]: [10]
- Proliferation (CFSE^low) CD8^+ T cells [4, 8]: [9]
- Proliferation (CFSE^low) CD8^+ T cells [4, 9]: [7]
- Proliferation (CFSE^low) CD8^+ T cells [4, 10]: [6]
- effect on in vitro FIV infection [5]: significant enhancement
- IFNγ (SFU) [6, 7]: [0] SFU/10^6 PBMC
- IFNγ (SFU) [6, 8]: [206] SFU/10^6 PBMC
- IFNγ (SFU) [6, 9]: [43] SFU/10^6 PBMC
- IFNγ (SFU) [6, 10]: [0] SFU/10^6 PBMC

Sequence: WRKLVDFRE [shorter peptide of HRT3]
- reactivity of PBMC from individual infected macaques [1]: reacted
